Broadly, the Ki is a dissociation constant, usually derived from enzyme kinetics or from competition with a known ligand.

We go through two molecules from article PMC7237647, “Synthesis, in vitro and in vivo evaluation of ^11C-O-methylated arylpiperazines as potential serotonin 1A (5-HT1A) receptor antagonist radiotracers” (EJNMMI Radiopharmacy and Chemistry, 2020).

In one test the target is H1-H4. Put plainly: NIMH-PDSP radioligand binding assay, H1-H4.
The next test has as its target T1, 5-HT2C (Homo sapiens, UniProt P28335).
T1 construct: NIMH-PDSP
T1 sequence (P28335 33-458): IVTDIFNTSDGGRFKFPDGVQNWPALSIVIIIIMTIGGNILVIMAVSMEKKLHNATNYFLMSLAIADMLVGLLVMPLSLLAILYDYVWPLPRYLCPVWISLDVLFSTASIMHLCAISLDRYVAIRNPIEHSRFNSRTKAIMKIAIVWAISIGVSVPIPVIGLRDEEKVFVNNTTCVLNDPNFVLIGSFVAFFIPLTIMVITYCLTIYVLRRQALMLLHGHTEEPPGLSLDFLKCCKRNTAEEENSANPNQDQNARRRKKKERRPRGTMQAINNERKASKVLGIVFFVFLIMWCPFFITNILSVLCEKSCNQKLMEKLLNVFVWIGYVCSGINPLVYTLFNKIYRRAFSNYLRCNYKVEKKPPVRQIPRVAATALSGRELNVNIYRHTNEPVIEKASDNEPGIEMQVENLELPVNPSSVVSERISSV
Further details: method as in ref Fiorino et al. [2012]; Fiorino et al. [2016]; Fiorino et al. [2017]. Particulars: previous preliminary pharmacological screening; ref Fiorino et al. [2012]; Fiorino et al. [2016]; Fiorino et al. [2017]; cited from earlier work.

For a further test, the target named is T2, 5-HT5a (Homo sapiens, UniProt P47898).
T2 construct: NIMH-PDSP
T2 sequence (P47898 whole entry, species assumed): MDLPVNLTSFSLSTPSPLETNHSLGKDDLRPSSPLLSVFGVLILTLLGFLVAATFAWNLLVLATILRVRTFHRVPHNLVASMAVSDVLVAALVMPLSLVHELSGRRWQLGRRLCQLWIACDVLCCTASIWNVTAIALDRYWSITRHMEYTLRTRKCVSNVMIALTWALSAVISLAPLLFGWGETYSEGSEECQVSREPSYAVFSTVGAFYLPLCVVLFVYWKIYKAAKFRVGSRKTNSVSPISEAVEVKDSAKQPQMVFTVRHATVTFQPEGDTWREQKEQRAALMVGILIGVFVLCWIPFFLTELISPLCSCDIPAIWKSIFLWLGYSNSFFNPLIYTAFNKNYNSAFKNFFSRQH
Put plainly: NIMH-PDSP radioligand binding assay, 5-HT5a. The method, then: (§1) . Cross selectivity for biogenic amines, neurotransmitter receptors, and transporters were determined by radioligand binding assays through NIMH- PDSP using validated and established protocols ([NIMH-PDSP Assay Protocol Book Version III, March 2018]).

The next test addresses 5-HT1A receptors. The arrangement: method as in ref Fiorino et al. [2012], Fiorino et al. [2016], Fiorino et al. [2017]. As to conditions: previous reports, different binding assay methodology; ref Fiorino et al. [2012], Fiorino et al. [2016], Fiorino et al. [2017]; cited from earlier work.
For another test, the target named is T3, 5-HT1B (Homo sapiens, UniProt P28222).
T3 construct: NIMH-PDSP
T3 sequence (P28222 whole entry, species assumed): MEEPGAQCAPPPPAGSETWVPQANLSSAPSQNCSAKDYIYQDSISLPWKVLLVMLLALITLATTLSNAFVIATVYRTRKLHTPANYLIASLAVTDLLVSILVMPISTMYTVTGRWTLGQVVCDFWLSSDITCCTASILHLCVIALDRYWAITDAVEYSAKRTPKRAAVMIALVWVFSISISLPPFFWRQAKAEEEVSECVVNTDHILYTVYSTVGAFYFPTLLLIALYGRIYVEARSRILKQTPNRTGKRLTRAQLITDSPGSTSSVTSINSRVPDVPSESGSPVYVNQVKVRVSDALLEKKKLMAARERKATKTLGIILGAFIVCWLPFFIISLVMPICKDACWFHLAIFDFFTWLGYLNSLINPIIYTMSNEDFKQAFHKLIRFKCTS
Put plainly: NIMH-PDSP radioligand binding assay, 5-HT1B. The method, then: as §1

Another test addresses T4, D2R (Homo sapiens, UniProt P14416).
T4 construct: NIMH-PDSP
Put plainly: NIMH-PDSP radioligand binding assay, D2R.

The next test concerns the target Adenosine receptors. Put plainly: NIMH-PDSP radioligand binding assay, Adenosine receptors.
The target of another test is T5, D3R (Homo sapiens, UniProt P35462).
T5 construct: NIMH-PDSP
T5 sequence (P35462 whole entry): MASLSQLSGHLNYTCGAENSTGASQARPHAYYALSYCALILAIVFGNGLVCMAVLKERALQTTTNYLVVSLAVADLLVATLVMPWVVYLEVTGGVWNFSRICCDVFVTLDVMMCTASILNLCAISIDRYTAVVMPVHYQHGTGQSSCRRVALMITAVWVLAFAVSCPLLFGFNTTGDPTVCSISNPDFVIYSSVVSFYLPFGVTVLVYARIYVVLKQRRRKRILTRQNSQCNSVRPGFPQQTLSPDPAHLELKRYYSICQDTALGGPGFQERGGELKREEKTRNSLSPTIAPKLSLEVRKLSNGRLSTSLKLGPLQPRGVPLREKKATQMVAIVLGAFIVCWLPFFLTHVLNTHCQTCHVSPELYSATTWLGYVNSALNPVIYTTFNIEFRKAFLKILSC
The test is described as follows: NIMH-PDSP radioligand binding assay, D3R. The method, then: as §1

The next test has as its target T6, 5-HT1E (Homo sapiens, UniProt P28566).
T6 construct: NIMH-PDSP
Put plainly: NIMH-PDSP radioligand binding assay, 5-HT1E. As for the experimental part: as §1

Another test deals with DAT (Homo sapiens, UniProt Q01959). The test is described as follows: NIMH-PDSP radioligand binding assay, DAT. The method, then: as §1
DAT, sequence (Q01959 whole entry, species assumed): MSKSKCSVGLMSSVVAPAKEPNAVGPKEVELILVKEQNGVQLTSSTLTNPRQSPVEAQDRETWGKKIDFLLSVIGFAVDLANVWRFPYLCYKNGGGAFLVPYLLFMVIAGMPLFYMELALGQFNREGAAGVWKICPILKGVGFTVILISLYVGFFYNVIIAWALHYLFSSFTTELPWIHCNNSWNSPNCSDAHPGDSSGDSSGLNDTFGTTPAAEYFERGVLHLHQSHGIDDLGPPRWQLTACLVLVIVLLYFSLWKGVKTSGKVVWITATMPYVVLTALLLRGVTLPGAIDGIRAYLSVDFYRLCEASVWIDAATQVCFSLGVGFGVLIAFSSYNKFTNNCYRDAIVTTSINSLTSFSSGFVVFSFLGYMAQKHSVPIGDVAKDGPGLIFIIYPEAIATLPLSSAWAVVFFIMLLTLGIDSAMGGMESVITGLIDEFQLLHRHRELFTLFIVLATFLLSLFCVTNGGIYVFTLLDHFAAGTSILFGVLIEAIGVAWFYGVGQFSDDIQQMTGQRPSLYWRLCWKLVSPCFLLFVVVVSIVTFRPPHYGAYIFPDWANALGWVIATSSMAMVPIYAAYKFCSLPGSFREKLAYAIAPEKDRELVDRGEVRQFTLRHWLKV
The target in a further test is T7, 5-HT1D (Homo sapiens, UniProt P28221).
T7 construct: NIMH-PDSP
T7 sequence (P28221 whole entry, species assumed): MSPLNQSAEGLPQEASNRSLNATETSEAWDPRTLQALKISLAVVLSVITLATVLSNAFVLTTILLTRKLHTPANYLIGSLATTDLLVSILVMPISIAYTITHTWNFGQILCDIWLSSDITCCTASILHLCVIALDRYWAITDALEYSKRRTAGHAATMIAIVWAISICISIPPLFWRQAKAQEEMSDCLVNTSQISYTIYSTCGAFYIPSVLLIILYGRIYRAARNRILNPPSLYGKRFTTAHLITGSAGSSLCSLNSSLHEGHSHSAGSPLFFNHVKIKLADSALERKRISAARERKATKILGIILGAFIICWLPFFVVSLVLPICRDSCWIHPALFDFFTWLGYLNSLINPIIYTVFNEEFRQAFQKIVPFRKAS
Put plainly: NIMH-PDSP radioligand binding assay, 5-HT1D. The method, then:
as §1

Another test has as its target NMDA. The test is described as follows: NIMH-PDSP radioligand binding assay, NMDA.
Another test addresses T8, 5-HT2A (Homo sapiens, UniProt P28223).
T8 construct: NIMH-PDSP
The arrangement: method as in ref Fiorino et al. [2012]; Fiorino et al. [2016]; Fiorino et al. [2017]. As to conditions: previous preliminary pharmacological screening; ref Fiorino et al. [2012]; Fiorino et al. [2016]; Fiorino et al. [2017]; cited from earlier work.

Another test concerns the target T9, 5-HT2B (Homo sapiens, UniProt P41595).
T9 construct: NIMH-PDSP
The test is described as follows: NIMH-PDSP radioligand binding assay, 5-HT2B. As for the experimental part: as §1

The target of the next test is Muscarinic receptors. Put plainly: NIMH-PDSP radioligand binding assay, Muscarinic receptors.
A further test concerns the target T10, NOP (Homo sapiens, UniProt P41146).
T10 construct: NIMH-PDSP
Put plainly: NIMH-PDSP radioligand binding assay, NOP. As for the experimental part:
as §1

The next test deals with T11, PBR (Rattus norvegicus, UniProt P16257).
T11 construct: NIMH-PDSP
Put plainly: NIMH-PDSP radioligand binding assay, PBR. As for the experimental part: as §1

A further test concerns the target SERT (Homo sapiens, UniProt P31645). The test is described as follows: NIMH-PDSP radioligand binding assay, SERT. As for the experimental part: as §1

T6 sequence (P28566 whole entry, species assumed): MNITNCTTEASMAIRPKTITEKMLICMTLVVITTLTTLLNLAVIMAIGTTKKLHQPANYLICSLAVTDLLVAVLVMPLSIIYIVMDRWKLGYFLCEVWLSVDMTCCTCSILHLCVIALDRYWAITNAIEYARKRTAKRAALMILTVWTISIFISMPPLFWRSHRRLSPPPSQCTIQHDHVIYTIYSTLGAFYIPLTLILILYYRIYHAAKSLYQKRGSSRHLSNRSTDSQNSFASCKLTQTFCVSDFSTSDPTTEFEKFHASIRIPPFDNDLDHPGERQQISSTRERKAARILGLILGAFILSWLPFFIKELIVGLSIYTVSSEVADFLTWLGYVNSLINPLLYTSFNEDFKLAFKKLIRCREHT
SERT, sequence (P31645 whole entry, species assumed): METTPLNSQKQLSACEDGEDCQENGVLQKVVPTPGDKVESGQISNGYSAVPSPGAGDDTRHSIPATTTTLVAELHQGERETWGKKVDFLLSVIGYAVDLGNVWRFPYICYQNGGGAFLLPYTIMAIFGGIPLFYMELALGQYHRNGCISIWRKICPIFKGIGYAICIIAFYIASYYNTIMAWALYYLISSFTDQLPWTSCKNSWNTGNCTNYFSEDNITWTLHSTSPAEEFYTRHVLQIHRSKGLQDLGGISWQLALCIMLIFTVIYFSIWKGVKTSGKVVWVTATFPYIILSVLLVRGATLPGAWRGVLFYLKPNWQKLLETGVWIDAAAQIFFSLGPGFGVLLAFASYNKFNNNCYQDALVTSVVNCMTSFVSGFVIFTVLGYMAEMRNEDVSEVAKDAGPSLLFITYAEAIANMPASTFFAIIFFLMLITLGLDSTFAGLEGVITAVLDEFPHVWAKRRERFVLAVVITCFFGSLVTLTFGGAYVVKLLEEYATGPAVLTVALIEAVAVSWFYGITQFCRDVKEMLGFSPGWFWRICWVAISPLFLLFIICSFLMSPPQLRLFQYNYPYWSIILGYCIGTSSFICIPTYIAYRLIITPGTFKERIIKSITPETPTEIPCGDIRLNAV
T9 sequence (P41595 whole entry, species assumed): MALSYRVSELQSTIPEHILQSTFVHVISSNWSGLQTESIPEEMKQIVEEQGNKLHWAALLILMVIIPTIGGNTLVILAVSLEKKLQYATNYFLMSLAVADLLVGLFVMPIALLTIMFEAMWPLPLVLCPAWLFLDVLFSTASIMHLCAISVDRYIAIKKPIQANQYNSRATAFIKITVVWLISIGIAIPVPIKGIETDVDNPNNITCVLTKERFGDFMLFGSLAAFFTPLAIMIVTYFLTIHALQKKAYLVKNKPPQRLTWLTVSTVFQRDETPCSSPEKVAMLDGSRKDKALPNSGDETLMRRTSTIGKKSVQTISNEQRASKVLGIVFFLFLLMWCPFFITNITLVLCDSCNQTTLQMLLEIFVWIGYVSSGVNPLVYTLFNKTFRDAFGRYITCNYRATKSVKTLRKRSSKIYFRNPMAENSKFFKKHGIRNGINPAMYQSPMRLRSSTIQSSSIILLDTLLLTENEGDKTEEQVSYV
T4 sequence (P14416 whole entry): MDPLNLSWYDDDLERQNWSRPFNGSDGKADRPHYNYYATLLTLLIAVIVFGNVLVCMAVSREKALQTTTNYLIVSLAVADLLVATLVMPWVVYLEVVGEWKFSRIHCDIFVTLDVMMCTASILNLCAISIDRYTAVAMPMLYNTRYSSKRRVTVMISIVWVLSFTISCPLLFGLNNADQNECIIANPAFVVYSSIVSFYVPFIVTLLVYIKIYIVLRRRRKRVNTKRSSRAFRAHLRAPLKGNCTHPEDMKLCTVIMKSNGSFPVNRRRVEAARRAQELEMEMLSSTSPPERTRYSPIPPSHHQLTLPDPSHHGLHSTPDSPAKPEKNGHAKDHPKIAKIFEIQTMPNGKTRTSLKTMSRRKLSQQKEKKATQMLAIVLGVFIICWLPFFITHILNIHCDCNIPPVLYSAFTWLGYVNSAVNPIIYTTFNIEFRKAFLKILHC
T10 sequence (P41146 whole entry): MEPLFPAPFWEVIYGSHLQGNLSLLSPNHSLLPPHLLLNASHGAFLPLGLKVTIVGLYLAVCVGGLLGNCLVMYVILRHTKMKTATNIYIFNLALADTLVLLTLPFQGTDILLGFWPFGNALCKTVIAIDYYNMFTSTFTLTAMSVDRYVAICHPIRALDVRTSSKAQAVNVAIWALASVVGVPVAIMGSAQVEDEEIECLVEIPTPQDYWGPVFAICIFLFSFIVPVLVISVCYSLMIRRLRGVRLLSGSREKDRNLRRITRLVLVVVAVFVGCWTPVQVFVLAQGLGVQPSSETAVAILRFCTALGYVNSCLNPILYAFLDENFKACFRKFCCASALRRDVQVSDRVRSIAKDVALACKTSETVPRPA
T8 sequence (P28223 whole entry, species assumed): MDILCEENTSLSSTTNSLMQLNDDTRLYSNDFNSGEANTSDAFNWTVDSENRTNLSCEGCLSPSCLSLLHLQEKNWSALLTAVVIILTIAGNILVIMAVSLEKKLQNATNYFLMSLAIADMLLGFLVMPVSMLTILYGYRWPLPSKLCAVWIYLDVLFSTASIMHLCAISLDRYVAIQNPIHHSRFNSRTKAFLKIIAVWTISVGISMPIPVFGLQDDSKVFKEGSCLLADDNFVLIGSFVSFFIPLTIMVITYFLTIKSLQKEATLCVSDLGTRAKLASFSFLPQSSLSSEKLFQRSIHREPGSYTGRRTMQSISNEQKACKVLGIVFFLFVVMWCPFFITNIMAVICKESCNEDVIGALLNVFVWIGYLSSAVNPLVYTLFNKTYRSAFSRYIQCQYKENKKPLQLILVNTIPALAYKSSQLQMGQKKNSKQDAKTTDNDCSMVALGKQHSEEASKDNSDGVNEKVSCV

Consider `COc1ccccc1N1CCN(CCCN/C(=N\C#N)c2ccccn2)CC1` [Compound 1], for which the Ki was over 10 µM at H1-H4; over 10 µM at 5-HT5a; 0.00468 µM on 5-HT1A receptors; over 10 µM at 5-HT1B; 0.777 µM on D2R; over 10 µM on Adenosine receptors. For the same molecule, the Ki is 0.369 µM at D3R; over 10 µM on 5-HT1E; over 10 µM on DAT; over 10 µM at 5-HT1D; over 10 µM at NMDA; 0.403 µM on 5-HT2B. The Ki at Muscarinic receptors, on NOP, at PBR and on SERT was over 10 µM throughout. The “affinity to 5-HT2C” value at 5-HT2C is “high affinities”. Besides, the “affinity to 5-HT2A” value at 5-HT2A is on record as “high affinities”.

Take `COc1ccccc1N1CCN(CCNC(=O)c2ccccn2)CC1` [Compound 2]: the inhibitory constant (Ki) on H1-H4 was over 10 µM; at 5-HT5a, over 10 µM; at 5-HT1B, over 10 µM; on D2R it was over 10 µM; on Adenosine receptors, over 10 µM; at D3R it was 2.55 µM. For the same molecule, the Ki was over 10 µM on 5-HT1E; over 10 µM on DAT; over 10 µM at 5-HT1D; over 10 µM on NMDA; 0.516 µM at 5-HT2B; over 10 µM at Muscarinic receptors. Moreover, the Ki on NOP, at PBR and at SERT was over 10 µM throughout. Also, the “affinity to 5-HT2A” value on 5-HT2A is “high affinities”.
